Reference: patent US5945508A, “Substance P treatment for immunostimulation” (priority 1997, dated 1999)

Legend:
immune system organs = experiment: Organ weight and total cell recovery; type: in vivo, C57B16 mice; set-up: Spleen Cell Number / Thymus Cell Number / LN Cell Number / BM Cell Number: scale not given here; Spleen Weight / Thymus Weight: unit not given here
Description: (§1) At 24 hours after the last exposure, the animals were sacrificed and the effects of exposure on the immune system examined. Immune organs (spleen, thymus, blood, lymph nodes and bone marrow) were recovered and analyzed for effects on organ weight, total cell numbers, immune cell populations (by differentials), and lymphocyte subpopulations (by flow cytometry). Assays were also performed to examine the effects of exposure on immune function. […] Similar effects on immune cell subpopulations were also observed in lymph nodes. In the thymus it appeared that the immature CD4^+ CD8^+ cells were differentially lost due to exposure. […] However, these effects are prevented or ameliorated by treatment of the animals with Substance P.
For each of the immune system organs (spleen, lymph nodes and thymus) the wet weight is determined after removal using a microbalance. After processing of the organs into single cell suspensions the cell numbers and viabilities are determined using trypan blue staining. Histochemical differentials are performed at this time. Cell numbers and viabilities are again determined after centrifugation of the cell suspensions through density gradients to obtain mononuclear cells.

[1] = system: lymphocyte subpopulations; experiment: Flow cytometric analyses (FACS); type: in vivo, C57B16 mice
Description: as §1
One- and two-color FACS analyses are performed using a Becton-Dickinson FACStar Plus flow cytometer. Cells are stained with the indicated monoclonal antibodies according to standard procedures (Harris et al., id). Cells alone and cells reacted with conjugated isotype control, irrelevant mAbs are used as controls. Data is presented as the percentage of cells staining positive for each individual mAb.

[2] = JP-8 1000 mg/m^3 + SP, nSP (1 nM), CP or RP

## COc1ccccc1CN[C@H]1C2CCN(CC2)[C@H]1C(c1ccccc1)c1ccccc1 [CP, reference compound]
Immune system organs; [2]
  BM Cell Number: 22
  LN Cell Number: 7.1
  Spleen Cell Number: 7
  Spleen Weight: 0.16
  Thymus Cell Number: 75
  Thymus Weight: 0.12
Immune system organs; dose 0 (no JP-8) + SP or CP
  BM Cell Number: 29
  LN Cell Number: 9.8
  Spleen Cell Number: 16
  Spleen Weight: 0.12
  Thymus Cell Number: 50
  Thymus Weight: 0.12
[1]; [2]
  BM CD3 positive cells: 14%
  BM CD4 positive cells: 7%
  BM CD8 positive cells: 3%
  BM CD45 positive cells: 41%
  BM MAC1 positive cells: 26%
  LN CD3 positive cells: 95%
  LN CD4 positive cells: 35%
  LN CD8 positive cells: 23%
  PBL CD3 positive cells: 50%
  PBL CD4 positive cells: 20%
  PBL CD8 positive cells: 15%
  PBL CD45 positive cells: 27%
  PBL MAC1 positive cells: 6%
  Spleen CD3 positive cells: 34%
  Spleen CD4 positive cells: 16%
  Spleen CD8 positive cells: 9%
  Spleen CD45 positive cells: 26%
  Spleen MAC1 positive cells: 10%
  Thymus CD3 positive cells: 17%
  Thymus DN cells: 12%
  Thymus DP cells: 65%
  Thymus SP4 cells: 17%
  Thymus SP8 cells: 7%
[1]; dose 0 (no JP-8) + SP or CP
  BM CD3 positive cells: 16%
  BM CD4 positive cells: 9%
  BM CD8 positive cells: 7%
  BM CD45 positive cells: 27%
  BM MAC1 positive cells: 33%
  LN CD3 positive cells: 49%
  LN CD4 positive cells: 25%
  LN CD8 positive cells: 12%
  LN CD45 positive cells: 15%
  LN MAC1 positive cells: 1%
  PBL CD3 positive cells: 72%
  PBL CD4 positive cells: 29%
  PBL CD8 positive cells: 13%
  PBL CD45 positive cells: 12%
  PBL MAC1 positive cells: 7%
  Spleen CD3 positive cells: 32%
  Spleen CD4 positive cells: 21%
  Spleen CD8 positive cells: 7%
  Spleen CD45 positive cells: 24%
  Spleen MAC1 positive cells: 3%
  Thymus CD3 positive cells: 18%
  Thymus DN cells: 13%
  Thymus DP cells: 75%
  Thymus SP4 cells: 12%
  Thymus SP8 cells: 3%

## COc1ccccc1CC(=N)N1C[C@@H]2C(=O)CCC(c3ccccc3)(c3ccccc3)[C@@H]2C1 [RP, reference compound]
Immune system organs; [2]
  BM Cell Number: 27
  LN Cell Number: 6.8
  Spleen Cell Number: 37
  Spleen Weight: 0.10
  Thymus Cell Number: 72
  Thymus Weight: 0.03
[1]; [2]
  BM CD3 positive cells: 12%
  BM CD4 positive cells: 6%
  BM CD8 positive cells: 5%
  BM CD45 positive cells: 42%
  BM MAC1 positive cells: 10%
  LN CD3 positive cells: 96%
  LN CD4 positive cells: 41%
  LN CD8 positive cells: 29%
  LN CD45 positive cells: 18%
  LN MAC1 positive cells: 1%
  PBL CD3 positive cells: 71%
  PBL CD4 positive cells: 18%
  PBL CD8 positive cells: 10%
  PBL CD45 positive cells: 38%
  PBL MAC1 positive cells: 9%
  Spleen CD3 positive cells: 47%
  Spleen CD4 positive cells: 16%
  Spleen CD8 positive cells: 5%
  Spleen CD45 positive cells: 39%
  Spleen MAC1 positive cells: 1%
  Thymus CD3 positive cells: 16%
  Thymus DN cells: 10%
  Thymus DP cells: 70%
  Thymus SP4 cells: 12%
  Thymus SP8 cells: 8%

## nSP: 1 nanomolar substance P
Immune system organs; [2]
  BM Cell Number: 31
  LN Cell Number: 10.8
  Spleen Cell Number: 58
  Spleen Weight: 0.11
  Thymus Cell Number: 78
  Thymus Weight: 0.04
[1]; [2]
  BM CD3 positive cells: 13%
  BM CD4 positive cells: 10%
  BM CD8 positive cells: 3%
  BM CD45 positive cells: 43%
  BM MAC1 positive cells: 16%
  LN CD3 positive cells: 95%
  LN CD4 positive cells: 42%
  LN CD8 positive cells: 25%
  LN CD45 positive cells: 23%
  LN MAC1 positive cells: 0%
  PBL CD3 positive cells: 78%
  PBL CD4 positive cells: 25%
  PBL CD8 positive cells: 8%
  PBL CD45 positive cells: 29%
  PBL MAC1 positive cells: 2%
  Spleen CD3 positive cells: 60%
  Spleen CD4 positive cells: 15%
  Spleen CD8 positive cells: 5%
  Spleen CD45 positive cells: 41%
  Spleen MAC1 positive cells: 1%
  Thymus CD3 positive cells: 25%
  Thymus DN cells: 7%
  Thymus DP cells: 69%
  Thymus SP4 cells: 16%
  Thymus SP8 cells: 7%
